Data taken from ChEMBL document CHEMBL1131661, “Use of the Suzuki reaction for the synthesis of aryl-substituted heterocycles as corticotropin-releasing hormone (CRH) antagonists” (Bioorg Med Chem Lett, 1999).

Target: T1, Corticotropin-releasing factor receptor 1 (Homo sapiens, UniProt P34998)
T1 sequence (P34998 whole entry): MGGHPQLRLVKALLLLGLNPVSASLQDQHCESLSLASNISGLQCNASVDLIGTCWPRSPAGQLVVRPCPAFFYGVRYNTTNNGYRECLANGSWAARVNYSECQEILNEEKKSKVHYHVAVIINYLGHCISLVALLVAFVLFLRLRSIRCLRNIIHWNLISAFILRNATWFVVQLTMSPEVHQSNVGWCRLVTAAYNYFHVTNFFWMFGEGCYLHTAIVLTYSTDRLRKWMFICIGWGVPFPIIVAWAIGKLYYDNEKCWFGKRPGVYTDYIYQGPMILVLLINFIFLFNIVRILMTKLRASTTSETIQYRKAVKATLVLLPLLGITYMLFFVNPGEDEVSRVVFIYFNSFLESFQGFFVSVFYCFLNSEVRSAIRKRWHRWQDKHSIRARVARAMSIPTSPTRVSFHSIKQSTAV
Test: Antagonistic activity for Corticotropin releasing factor receptor 1
Assay type: functional

Structure (SMILES) | Ki
CCN(c1nc(C)nc(-c2ccccc2C(F)(F)F)n1)c1ccc(C(C)C)cc1Br | 5.5 nM
CSc1nn(-c2c(Cl)cc(Cl)cc2Cl)c2nc(C)nc(-c3ccccc3C(F)(F)F)c12 | 33.4 nM
COc1cc(Br)c(Nc2nc(C)nc(-c3ccccc3C(F)(F)F)c2[N+](=O)[O-])c(OC)c1 | 23.1 nM
Cc1cc(C)c(-n2nnc3c(-c4ccccc4C(F)(F)F)nc(C)nc32)c(C)c1 | 168 nM
CCN(CC1CC1)c1nc(C)nc(Nc2c(Cl)cc(Cl)cc2Cl)c1C | 2 nM
Cc1cc(C)c(-n2c(C)c(C)c3c(-c4ccccc4C(F)(F)F)nc(C)nc32)c(C)c1 | 9.7 nM

Other lines, results leading:

Ki | Structure (SMILES)
21.4 nM | COc1cc(Br)c(-n2nnc3c(-c4ccccc4C(F)(F)F)nc(C)nc32)c(OC)c1
32.3 nM | COc1cc(Br)c(-n2c(C)nc3c(-c4ccccc4C(F)(F)F)nc(C)nc32)c(OC)c1
95.5 nM | COc1cc(Br)c(-n2c(=O)n(C)c3c(-c4ccccc4C(F)(F)F)nc(C)nc32)c(OC)c1
3.5 nM | CCCCN(CC)c1nc(C)nc2c1nnn2-c1c(Br)cc(OC)cc1OC
60.3 nM | COc1cc(Br)c(Nc2nc(C)nc(-c3ccccc3C(F)(F)F)c2N)c(OC)c1
202 nM | COc1cc(Br)c(-n2c(=O)[nH]c3c(-c4ccccc4C(F)(F)F)nc(C)nc32)c(OC)c1
